Common to all, as to test: NCI-60 cell line screen, 48 h
The test system of assay [1] is A498 renal.
Assay [2] has as its system A549 NSCLC.
The subject of assay [3] is ACHN renal.
The test system of assay [4] is HCT-116 colon.
Assay [5] relates to MOLT-4 leukemia.
The subject of assay [6] is NCI-H23 lung.
Assay [7] concerns OVCAR-4 ovarian.
Assay [8] has as its system TK-10 renal.
The test system of assay [9] is MCF7 breast.
Assay [10] relates to HS 578T breast.

Each structure is given as a SMILES string.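 The compound was tested at five concentrations on cells cultured in 96-well plates, with a 48-hour exposure period. The concentration for 50% growth inhibition is given as GI50. Definition used: TGI = concentration required for complete inhibition of growth.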

For `CC(=O)O[C@@H]1CC(C)C2CC2C2=C(C(O)OC2O)[C@@H]1C(C)CCC=C(C)C` (some centres not stated), the TGI in [1] is over 100 µM; in [2], 51.7 µM; in assay [3], 90.5 µM; in assay [4] it was 32.7 µM; in assay [5], 54.5 µM; in assay [6], 55.4 µM. The TGI was found to be 71.2 µM in [7] and 90 µM in [8].
Regarding `COc1cc2c(cc1OC)[C@@H](C(O)c1ccccc1)NCC2` (some centres not stated), the TGI in [1], in assay [2], in assay [3], in assay [4], in assay [5] and in assay [6] was over 100 µM throughout. In addition, the TGI in [7] and in [8] was over 100 µM each time.
For the compound `Cc1cccc(C)c1NC(=O)C(=O)CC(=O)CO`, the TGI in [1], in assay [2], in [3], in assay [4], in [5] and in assay [6] was over 100 µM throughout. Further, the TGI in assay [7] and in assay [8] was over 100 µM in each case.
As to `CN(C)c1ccc(/C=C2\N=C(c3ccc(N)cc3)OC2=O)cc1`, the TGI in assay [1], in assay [2], in assay [3], in [5], in assay [6] and in assay [7] was over 100 µM each time. The compound further registered a TGI in assay [8] of over 100 µM.
As for `Clc1cc(Cl)cc(N2N=C(c3cccc(Nc4ccncc4)c3)CC2c2ccc(Br)cc2)c1` (configuration not stated), the GI50 in [1] was 1.08 µM; in [3], 1.66 µM; in assay [5], 1.95 µM; in assay [6] it was 1.79 µM; in assay [7], 1.6 µM; in assay [8], 1.86 µM. Moreover, the TGI in assay [1] amounted to 2.3 µM; in assay [3], 3.02 µM; in assay [5] it was 4.44 µM; in [6] it was 3.41 µM; in [7] it was 2.96 µM; in [8] it was 3.6 µM.
For the compound `N#CC1(c2nc3ccccc3o2)C(=O)C(=O)N(c2ccc(Cl)c(Cl)c2)C(=O)C1=O`, the TGI in assay [2], in assay [3], in assay [5], in assay [6], in assay [7] and in [8] was over 100 µM in each case.
Consider `Cc1ccc(C2=Nc3ccccc3NC(=O)C2)cc1`, for which the TGI in assay [1], in [2], in assay [3], in [4], in [5] and in assay [6] was over 100 µM in each case. In addition, the TGI in assay [7] and in assay [8] was over 100 µM throughout.
In the case of `Cc1cc(N/N=C/c2nc(-c3ccccc3)oc2C)c2cc(Cl)ccc2n1`, the GI50 was 3.2 µM in assay [1]; 1.85 µM in assay [2]; 1.74 µM in assay [3]; 1.82 µM in assay [4]; 1.64 µM in [9]; 2.04 µM in assay [5]. The GI50 in assay [6] was 1.7 µM; in assay [7], 1.85 µM; in assay [8], 1.79 µM. Besides, the TGI stood at 18.1 µM in assay [1]; 3.58 µM in assay [2]; 3.14 µM in assay [3]; 3.39 µM in assay [4]; 3.56 µM in assay [9]; 4.54 µM in assay [5]. The TGI stood at 3.61 µM in assay [6], 3.53 µM in [7] and 3.29 µM in assay [8].
For the compound `CC(=S)NNC(=O)c1ccncc1`, the TGI in assay [1], in [2], in [3], in assay [4], in assay [5] and in assay [6] was over 100 µM throughout. Further, the TGI in assay [7] and in assay [8] was over 100 µM in each case.
Consider `c1ccc2[nH]c(-c3ccc(OCCCCCOc4ccc(-c5nc6ccccc6[nH]5)cc4)cc3)nc2c1`, for which the GI50 in [1] was 6.51 µM; in assay [2] it was 2.53 µM; in assay [3] it was 3.29 µM; in [4] it was 1.25 µM; in [10], 1.3 µM; in assay [5], 1.07 µM. The GI50 is 8.89 µM in [6], 1.76 µM in assay [7] and 2.05 µM in assay [8]. Also, the TGI in assay [1] is 15.8 µM; in assay [2], over 47.4 µM; in assay [3], 11.9 µM; in assay [4], 3.87 µM; in assay [10], 4.41 µM; in [5], 3.48 µM. Moreover, the TGI in assay [6] was 26 µM; in assay [7] it was 3.64 µM; in assay [8] it was 3.77 µM.
With `CC(C)(C)C(=O)C(c1ccc(-c2cscn2)cc1)c1ccc(-c2cscn2)cc1`, the TGI in [1] is 65.8 µM; in [2], over 100 µM; in [3], over 100 µM; in assay [4] it was over 100 µM; in assay [5], over 100 µM; in [6], over 100 µM. Also, the figures for the TGI in assay [7] and in assay [8] were 9.54 µM and 92 µM, respectively.
In the case of `NC(=NC1CCCCCC1)c1ccc(N2CCN(c3ccc(C(N)=NC4CCCCCC4)cc3)CC2)cc1`, the GI50 in assay [2] is 9.29 µM; in [3], 46.4 µM; in [4], 10.2 µM; in assay [5], 23.9 µM; in assay [6] it was 4.77 µM; in [7], 26.6 µM. Also, the GI50 in assay [8] is 14.6 µM. The TGI was over 50 µM in [2]; over 50 µM in assay [3]; 48.8 µM in assay [4]; over 50 µM in [5]; 18.5 µM in assay [6]; over 50 µM in assay [7]. Further, the TGI in [8] was over 50 µM.
In the case of `COC1CC(OS(=O)(=O)c2ccc(C)cc2)C(OS(=O)(=O)c2ccc(C)cc2)C(COS(=O)(=O)c2ccc(C)cc2)O1` (configuration not stated), the TGI in [2] was 19.3 µM; in [3], 12.7 µM; in assay [4], over 100 µM; in assay [5], over 100 µM; in [6], 15.6 µM; in [7] it was 1.12 µM.
Turning to `O=Cc1[nH]c2ccccc2c1Br`, the TGI was 33.6 µM in [1]; over 100 µM in [2]; 82.7 µM in assay [3]; 38.1 µM in assay [4]; 68.6 µM in [5]; 87.8 µM in assay [6]. The TGI in assay [7] is over 100 µM; in [8], 74.3 µM.
Take `Cc1cc2c(c(C#N)c1C)NC(=O)C(CC(=O)O)C2=O` (configuration not stated): the TGI in assay [1], in assay [2], in assay [3], in [4], in assay [5] and in assay [6] was over 100 µM throughout. In addition, the TGI in assay [7] and in assay [8] was over 100 µM each time.
Regarding `O=C(Nc1nccs1)c1cc(C2=CC=CC([N+](=O)[O-])C=C2)nc(=S)[nH]1` (configuration not stated), the TGI in [1], in assay [2], in [3], in assay [4], in [5] and in assay [6] was over 100 µM in each case. The compound also showed a TGI in [8] of over 100 µM.
In the case of `O=C(O)c1ccc([N+](=O)[O-])c2c(=O)c3ccccc3[nH]c12`, the TGI in [1], in assay [2], in [3], in [4], in [5] and in [7] was over 100 µM each time.
With `CCN(CC)C(=S)N/N=C(\C)c1ccccc1O`, the TGI in [1] is over 100 µM; in [2], 43.4 µM; in assay [3] it was 61.4 µM; in assay [5], over 100 µM; in assay [6] it was over 100 µM; in assay [7], over 100 µM. Also, the TGI in assay [8] was over 100 µM.
With `CCCCC(=O)[O-].N.N.N.N.N.[Co+3].[O-][Cl+3]([O-])([O-])[O-]`, the GI50 in [1], in assay [2], in assay [3], in assay [4], in assay [5] and in assay [6] was over 100 µM throughout. Moreover, the GI50 in assay [7] and in assay [8] was over 100 µM in each case. For the same compound, the TGI in [1], in assay [2], in [3], in assay [4], in assay [5] and in assay [6] was over 100 µM throughout. Besides, the TGI in assay [7] and in assay [8] was over 100 µM in each case.
For `N#CC(C#N)=CN1CCN(C(=O)c2ccccc2)C1=S`, the GI50 is 37.1 µM in [2]; 18.8 µM in assay [3]; 34 µM in assay [4]; 16.7 µM in [9]; 39.2 µM in [5]; 26.1 µM in [6]. Also, the figures for the GI50 in assay [7] and in [8] were 59.3 µM and 23.3 µM, respectively. The TGI in assay [2] is over 100 µM; in assay [3], 43.6 µM; in assay [4] it was over 100 µM; in [9] it was 55.9 µM; in [5], over 100 µM; in assay [6], 60.1 µM. Besides, the values for the TGI in assay [7] and in assay [8] were over 100 µM and 75.1 µM, respectively.
On to `Cl.Fc1c[c-]c(-c2ccccn2)c(F)c1.[Pt].c1ccc([PH+](CC[PH+](c2ccccc2)c2ccccc2)c2ccccc2)cc1`, for which the GI50 in assay [1] was 0.103 µM; in [3], 0.271 µM; in assay [9] it was 0.0625 µM; in [5], 0.291 µM; in [7], 0.187 µM; in [8] it was 0.157 µM. In addition, the TGI in assay [1] amounted to 0.478 µM; in [3] it was 0.993 µM; in assay [9], 1.1 µM; in assay [5], 1.29 µM; in [7], 1.01 µM; in [8], 1.13 µM.
Turning to `O=C(c1ccc(NCN2C(=O)CCC2=O)cc1)c1ccc(NCN2C(=O)CCC2=O)cc1`, the TGI in [2], in [3], in assay [4], in assay [5], in assay [6] and in assay [7] was over 100 µM throughout. This compound also had a TGI in assay [8] of over 100 µM.
`CNS(=O)(=O)NN(C)S(=O)(=O)c1ccc(Br)cc1`: the TGI in assay [1], in assay [2], in [3], in assay [4], in [5] and in [6] was over 100 µM throughout. Moreover, the TGI in [7] and in assay [8] was over 100 µM in each case.
`O=C(N/N=C/c1cc(Br)cc(Br)c1[O-])c1ccccc1O.O=C(N/N=C/c1cc(Br)cc(Br)c1[O-])c1ccccc1O.[Mn+2]`: the GI50 in assay [1] was 12.8 µM. Further, the TGI in assay [1] worked out at 50.1 µM; in [2], 25.5 µM; in assay [3], 15.1 µM; in assay [4], 7.36 µM; in assay [5], 7.94 µM; in [7], 17.5 µM. For the same compound, the TGI in assay [8] came out at 31 µM.
For `O[C@]12CCCC[C@H]1CCC2`, the TGI in assay [1], in assay [2], in assay [3], in assay [4], in assay [5] and in assay [6] was over 100 µM in each case. For the same compound, the TGI in assay [7] and in [8] was over 100 µM in each case.
Regarding `C=CCN=C1N=C(CC(=O)OCC)CS1`, the TGI in assay [1], in assay [2], in [3], in assay [4], in assay [6] and in assay [7] was over 100 µM throughout. In assay [8], the TGI was over 100 µM.
With `COC1=C(C(=O)OC(C)(C)C)[C@]2(C)C(C(=O)OC(C)(C)C)C(OC)=C(C(=O)OC(C)(C)C)[C@]2(C)C1C(=O)OC(C)(C)C` (some centres not stated), the TGI in assay [1], in [2], in [3], in assay [4], in [5] and in assay [6] was over 100 µM in each case. In addition, the TGI in [7] and in assay [8] was over 100 µM throughout.
As for `CCOC(=O)NC(=O)c1cn(CCCOC(=O)CCCCCCCCC(=O)OCCCn2cc(C(=O)NC(=O)OCC)c(=O)[nH]c2=O)c(=O)[nH]c1=O`, the TGI in assay [1] is 67.5 µM; in assay [2], over 100 µM; in assay [3], 42.1 µM; in assay [4] it was over 100 µM; in [5], 95.9 µM; in assay [7], 30.7 µM. Further, in [8], the TGI came to 57.9 µM.

Values taken from PubChem BioAssay (NCI).
